US4870002A, “Method of prevention of oxidative injury to cells” (priority 1985, dated 1989)

What was measured:
[1] = test system: L5178Y murine lymphosarcoma cells; test: Survival after gamma irradiation by colony formation in soft agar; assay type: cell-based
Protocol: The remainder of the cell suspension after irradiation was used for determination of survival by colony formation in soft agar. For each dose, based on estimated survival probability, different numbers of cells were distributed in soft agar suspension (0.4% DIFCO Noble Agar) into 100 mm petri dishes. The dishes were briefly chilled to gel the agar, and then after brief warming in the laminar flow hood, placed in the 37° C. humidified CO2 incubator. The dishes were incubated for 11 days, and the number of colonies were determined using an Artek Automatic Colony Counter.
For the control and each 3-aminotyrosine and radiation dose, the percent cloning efficiency (% CE) was determined by dividing the number of colonies counted at 11 days by the number of cells seeded into the agar, times 100. The 0 dose % CE value was taken to be 100% survival for that chemical. The percent (%) survival reported was calculated by dividing the % CE after a given dose of radiation by the 0 dose % CE, times 100.
THMG/THG treated L5178Y cells were mass cultured and the cell density determined. Aliquots of the cell suspension with enough cells to give 300,000 cells per ml in 60 ml (1.8×10^7 cells) were distributed into three 50 ml centrifuge tubes, and after centrifugation, the original growth medium was discarded. The cells were resuspended in GIBCO custom formulation medium which had been prepared without phenol red. The cells were then washed one more time by centrifugation and resuspended again in 10 ml of the phenol red-free medium. These 10 ml suspensions of cells containing 1.8×10^7 cells were then transferred into three flasks already containing 50 ml of phenol red-free medium, distilled water, and either 100 nanomoles/ml or 2 micromoles/ml solutions of 3-aminotyrosine. The exposure system was treated as light sensitive (i.e., procedures were performed under gold light or reduced lighting).
Immediately after irradiation was completed, the cells were centrifuged, washed twice with F10p, and resuspended in 10 ml of F10p. The cell density was again determined by Coulter counter. […] After 11 days incubation at 37° C., colonies were counted and cell survival was determined.

[2] = test system: human KBE epidermoid carcinoma cells; test: Survival after gamma irradiation by colony formation; assay type: cell-based; settings: for radioprotection, in words: low dose
Protocol: In those experiments performed with media containing phenol red, this medium was replaced (in
each flask) with 10 ml of fresh medium; the flasks were then reincubated at 37° C. for 1 hour. After this time, under yellow light, 0.05 ml aliquots of distilled water or solutions of 3-aminotyrosine were injected to give 1:200 dilutions. […] Flasks were irradiated at 0, 250, 500, or 1000 rads at room temperature as previously described. Efforts were made to keep light exposure to a minimum. For those flasks irradiated for 8 min (10 Gy), the temperature in the flasks would decrease during that interval to 30° C.
Immediately after the irradiations were complete, the attached cells were washed two times with Saline A salt solution, the trypsinized using standard procedures with 1.5 ml of trypsin-EDTA (GIBCO 610-5300). The cells were declumped after inactivation of the trypsin with fresh medium, and the cell density determined by Coulter counter. Cell dilutions of appropriate densities were made with fresh medium in sterile plastic conical centrifuge tubes, and 5 ml aliquots were seeded at two different dilutions for each treatment flask into fresh T-25 flasks (4 replicate flasks at each cell dilution). The flasks were all incubated for 7 days, at which time the old medium was aspirated and the cells were fixed in situ with 100% methanol. The colonies were then stained with 0.3% methylene blue, and rinsed with distilled water. After air drying, colonies greater than 1 mm in diameter were scored as viable colonies. The cloning efficiency in each flask was determined as described for the L5178Y cells above.
In one experiment, treatment with 3-aminotyrosine was performed using custom formulated Earle's BME medium without phenol red (GIBCO 85-0078). Prior to addition of 3-aminotyrosine, cells were washed free of the standard growth medium using Saline A without phenol red.

Novikoff hepatoma [3] = test: Effect of peroxidase inhibitor on ICCOPS-promoted hepatoma regression; assay type: in vivo, rat
Protocol: Four of the animals were also injected with 100 μg of 3-aminotyrosine.

Novikoff hepatoma [4] = test: Enhancement of tumor growth by aminotyrosine after dilute hepatoma cell challenge; assay type: in vivo, rat; settings: 1 mg i.p. daily for five days; ninth day following inoculation; four adult male rats; controls no tumor
Protocol: In order to evaluate whether or not endogenous peroxidases play a role in the natural resistance to neoplastic growth, we injected some rats with a potent inhibitor of the cytotoxic activity of peroxidases and subsequently challanged the animals with a suspension of hepatoma cells.
Four adult male rats were injected i.p. with 1 mg of 3-aminotyrosine in 1 ml of water. Four control rats were injected with 1 ml of water. The following day all rats were injected with 1 ml of a dilute Novikoff hepatoma cell suspension; the number of cells being normally insufficient to produce tumor growth. On the same day, an additional 1 mg aminotyrosine was administered to the rats that received the inhibitor the previous day and this was repeated for three more days. The four control rats similarly received water injections.
On the ninth day following the inoculation with tumor, all rats were sacrificed and examined for the presence of tumor. No tumor was present in any of the control animals.

[5] = Zero hour incubation, 250 rads, 2 micromoles/ml
[6] = Zero hour incubation, 250 rads, 100 nanomoles/ml
[7] = Zero hour incubation, 500 rads, 2 micromoles/ml
[8] = Zero hour incubation, 500 rads, 100 nanomoles/ml
[9] = Zero hour incubation, 1000 rads, 2 micromoles/ml
[10] = Zero hour incubation, 1000 rads, 100 nanomoles/ml

Q: With Nc1cc(C[C@H](N)C(=O)O)ccc1O [3-aminotyrosine, 3-amino-L-tyrosine] as the compound, how does the “Ratio of Percent Survival, 3-Aminotyrosine/Control” value ([1]; Sixteen hour incubation, 250 rads, 1000 cells seeded, 2 micromoles/ml) read?
A: Its value is 0.84.

Q: What about the “Ratio of Percent Survival, 3-Aminotyrosine/Control” value ([1]; Sixteen hour incubation, 250 rads, 1000 cells seeded, 100 nanomoles/ml) of the same compound?
A: The value was 0.81.

Q: And the “Ratio of Percent Survival, 3-Aminotyrosine/Control” value ([1]; Sixteen hour incubation, 250 rads, 2000 cells seeded, 2 micromoles/ml)?
A: The value was 0.94.

Q: And the “Ratio of Percent Survival, 3-Aminotyrosine/Control” value ([1]; Sixteen hour incubation, 250 rads, 2000 cells seeded, 100 nanomoles/ml)?
A: Its value is 0.85.

Q: What about the “Ratio of Percent Survival, 3-Aminotyrosine/Control” value ([1]; Sixteen hour incubation, 500 rads, 1000 cells seeded, 2 micromoles/ml) of the same compound?
A: Its value is 1.20.

Q: And the “Ratio of Percent Survival, 3-Aminotyrosine/Control” value ([1]; Sixteen hour incubation, 500 rads, 1000 cells seeded, 100 nanomoles/ml)?
A: The value was 0.63.

Q: What about the “Ratio of Percent Survival, 3-Aminotyrosine/Control” value ([1]; Sixteen hour incubation, 500 rads, 2000 cells seeded, 2 micromoles/ml) of the same compound?
A: The value was 1.59.

Q: What about the “Ratio of Percent Survival, 3-Aminotyrosine/Control” value ([1]; Sixteen hour incubation, 500 rads, 2000 cells seeded, 100 nanomoles/ml) of the same compound?
A: Its value is 0.98.

Q: What about the “Ratio of Percent Survival, 3-Aminotyrosine/Control” value ([1]; Sixteen hour incubation, 1000 rads, 2.5 × 10^5 cells seeded, 2 micromoles/ml) of the same compound?
A: Its value is 1.95.

Q: And the “Ratio of Percent Survival, 3-Aminotyrosine/Control” value ([1]; Sixteen hour incubation, 1000 rads, 2.5 × 10^5 cells seeded, 100 nanomoles/ml)?
A: The value was 4.91.

Q: What about the “Ratio of Percent Survival, 3-Aminotyrosine/Control” value ([1]; Sixteen hour incubation, 1000 rads, 5.0 × 10^5 cells seeded, 2 micromoles/ml) of the same compound?
A: The value was 3.22.

Q: And the “Ratio of Percent Survival, 3-Aminotyrosine/Control” value ([1]; Sixteen hour incubation, 1000 rads, 5.0 × 10^5 cells seeded, 100 nanomoles/ml)?
A: The value was 1.27.

Q: And the “Ratio of Percent Survival, 3-Aminotyrosine/Control” value [1, 5]?
A: Its value is 0.89.

Q: And the “Ratio of Percent Survival, 3-Aminotyrosine/Control” value [1, 6]?
A: The value was 0.85.

Q: What about the “Ratio of Percent Survival, 3-Aminotyrosine/Control” value [1, 7] of the same compound?
A: Its value is 0.63.

Q: And the “Ratio of Percent Survival, 3-Aminotyrosine/Control” value [1, 8]?
A: Its value is 0.70.

Q: And the “Ratio of Percent Survival, 3-Aminotyrosine/Control” value [1, 9]?
A: Its value is 0.51.

Q: What about the “Ratio of Percent Survival, 3-Aminotyrosine/Control” value [1, 10] of the same compound?
A: The value was 0.56.

Q: What about the “effect on cell survival after irradiation, in words” value ([1]; cells preincubated for 16 hours) of the same compound?
A: Its value is “protective of cell survival”.

Q: What about the “Ratio of Percent Survival, 3-Aminotyrosine/Control” value ([2]; Twenty-Four Hour Incubation (No Phenol Red), 250 rads, 2 micromoles/ml) of the same compound?
A: Its value is 1.08.

Q: And the “Ratio of Percent Survival, 3-Aminotyrosine/Control” value ([2]; Twenty-Four Hour Incubation (No Phenol Red), 250 rads, 100 nanomoles/ml)?
A: Its value is 0.79.

Q: And the “Ratio of Percent Survival, 3-Aminotyrosine/Control” value ([2]; Twenty-Four Hour Incubation (No Phenol Red), 500 rads, 2 micromoles/ml)?
A: Its value is 1.49.

Q: What about the “Ratio of Percent Survival, 3-Aminotyrosine/Control” value ([2]; Twenty-Four Hour Incubation (No Phenol Red), 500 rads, 100 nanomoles/ml) of the same compound?
A: Its value is 0.48.

Q: What about the “Ratio of Percent Survival, 3-Aminotyrosine/Control” value ([2]; Twenty-Four Hour Incubation (No Phenol Red), 1000 rads, 2 micromoles/ml) of the same compound?
A: The value was 2.61.

Q: What about the “Ratio of Percent Survival, 3-Aminotyrosine/Control” value ([2]; Twenty-Four Hour Incubation (No Phenol Red), 1000 rads, 100 nanomoles/ml) of the same compound?
A: The value was 2.32.

Q: What about the “Ratio of Percent Survival, 3-Aminotyrosine/Control” value ([2]; Twenty-Four Hour Incubation (Phenol Red Present), 250 rads, 2 micromoles/ml) of the same compound?
A: Its value is 1.28.

Q: What about the “Ratio of Percent Survival, 3-Aminotyrosine/Control” value ([2]; Twenty-Four Hour Incubation (Phenol Red Present), 250 rads, 100 nanomoles/ml) of the same compound?
A: The value was 1.53.

Q: What about the “Ratio of Percent Survival, 3-Aminotyrosine/Control” value ([2]; Twenty-Four Hour Incubation (Phenol Red Present), 500 rads, 2 micromoles/ml) of the same compound?
A: The value was 2.91.

Q: And the “Ratio of Percent Survival, 3-Aminotyrosine/Control” value ([2]; Twenty-Four Hour Incubation (Phenol Red Present), 500 rads, 100 nanomoles/ml)?
A: The value was 1.36.

Q: What about the “Ratio of Percent Survival, 3-Aminotyrosine/Control” value ([2]; Twenty-Four Hour Incubation (Phenol Red Present), 1000 rads, 2 micromoles/ml) of the same compound?
A: Its value is 4.65.

Q: And the “Ratio of Percent Survival, 3-Aminotyrosine/Control” value ([2]; Twenty-Four Hour Incubation (Phenol Red Present), 1000 rads, 100 nanomoles/ml)?
A: Its value is 1.63.

Q: What about the “Ratio of Percent Survival, 3-Aminotyrosine/Control” value [2, 5] of the same compound?
A: Its value is 1.70.

Q: What about the “Ratio of Percent Survival, 3-Aminotyrosine/Control” value [2, 6] of the same compound?
A: The value was 0.94.

Q: And the “Ratio of Percent Survival, 3-Aminotyrosine/Control” value [2, 7]?
A: Its value is 1.25.

Q: What about the “Ratio of Percent Survival, 3-Aminotyrosine/Control” value [2, 8] of the same compound?
A: Its value is 0.81.

Q: And the “Ratio of Percent Survival, 3-Aminotyrosine/Control” value [2, 9]?
A: Its value is 2.26.

Q: And the “Ratio of Percent Survival, 3-Aminotyrosine/Control” value [2, 10]?
A: Its value is 0.99.

Q: What about the “effect on survival after irradiation, in words” value ([2]; high concentration, added 24 hours prior to exposure, medium containing phenol red) of the same compound?
A: Its value is “radioprotective effect”.

Q: What about the “radioprotection, in words” value ([2]; 10 minute preincubations (0 hours)) of the same compound?
A: The value was “no radioprotection”.

Q: And the “radioprotection, in words” value ([2]; pre-incubation for 24 hours)?
A: The value was “low-dose radioprotection”.

Q: And the “effect on the action of ICCOPS, in words” value (Novikoff hepatoma [3]; 100 μg injected into ICCOPS-treated hepatoma-bearing rats)?
A: Its value is “inhibited the action of ICCOPS”.

Q: And the “outcome, in words” value (Novikoff hepatoma [3]; four rats receiving ICCOPS and 100 μg 3-aminotyrosine)?
A: Its value is “eventually died of the tumor”.

Q: And the “presence of tumor, in words” value (Novikoff hepatoma [4])?
A: Its value is “had developed tumor growth”.
